# Results taken from patent US20150352134A1, “COMPOSITION FOR TOPICAL SKIN APPLICATION CONTAINING GINSENOSIDE F2 DERIVED FROM HYDROPONIC GINSENG” (AMOREPACIFIC CORPORATION, priority 2012, published 2015).
# Columns and labels:
# tyrosinase [1] = experiment: Tyrosinase inhibitory effect; assay type: biochemical, mushrooms; settings: 37° C., absorbance 475 nm
# Procedure: The tyrosinase as used herein is an enzyme extracted from mushrooms and purchased from Sigma-Aldrich. Firstly, tyrosine as a substrate is dissolved in distilled water to prepare a 0.3 mg/mL solution, which is added dropwise to a test tube at an amount of 1.0 mL each time. To the solution are added 1.0 mL of a potassium phosphate buffer solution (0.1 mol, pH 6.8) and 0.7 mL of distilled water.
# 0.2 mL of the sample solution is added to the reactant solution and then allowed to have a reaction in a thermostat container at 37° C. for 10 minutes. In this regards, the control is the reactant solution containing 0.2 mL of a solvent alone in place of each sample solution. The positive control uses ascorbic acid. 0.1 mL of a 2500 unit/mL tyrosinase solution is added to the reactant solution, which is then allowed to have a reaction again in a thermostat container at 37° C. for 10 minutes. The test tube filled with the reactant solution is put into an ice water to cause quenching and thus stop the reaction. The absorbance at 475 nm is measured with a photoelectric spectrophotometer. The tyrosinase inhibitory effect is calculated according to the following mathematical formula 3.
# elastase type III = molecular target: T1, elastase type III (Sus scrofa, UniProt P00772); experiment: Elastase inhibitory effect; assay type: biochemical; settings: EGCG 250 μM; 25° C., 15 minutes, absorbance 415 nm
# T1 construct: purchased Sigma-Aldrich E0127
# Procedure: The elastase inhibitory function of the ginsenoside F2 is measured in comparison with that of EGCG. The elastase and the substrate used herein are purchased from Sigma-Aldrich, U.S.A. (Cat. No. E0127).
# The elastase inhibitory function is measured according to the following method.
# In a 96-well plate, ginsenoside F2 (200 μL) and 50 μL of a 20 μg/mL elastase type III solution are mixed with a […] tris-HCL buffer solution (pH 8.0). The positive control is EGCG 250 μM, and the negative control which is a non-treated group is distilled water. Then, 100 μL of 0.4514 mg/mL N-succinyl-ala-ala-ala-p-nitroanilide prepared with the buffer solution is added to the mixture and allowed to react at 25° C. for 15 minutes. After completion of the reaction, the absorbance at 415 nm was measured. The blank test is performed in the same manner as described above to achieve calibration verification.
# The elastase inhibitory function is calculated according to the following mathematical formula 1, and the results are presented in Table 2.
# Elastase inhibition rate (%)={1−(C−D)/(A−B)}×100 [Mathematical Formula 1]
# A: Absorbance at 415 nm with enzyme and no test substance.
# B: Absorbance at 415 nm with no test substance and no enzyme.
# C: Absorbance at 415 nm with test substance and enzyme.
# D: Absorbance at 415 nm with test substance and no enzyme.
# Melanin-a cells = experiment: Melanogenesis promotion in Melanin-a cells; assay type: cell-based; settings: 100 μM, 3 days; DMSO (0.1%) = 100
# Procedure: Melanin-a cells are injected in a 24-well microtiter plate at a rate of 50,000 cells per well with an RPMI medium containing 5% fetal bovine serum, 100 IU penicillin G, and 0.2 μM TPA. Next day, the cells are treated with ginsenoside F2 as a test substance independently at the final concentration of 10 ppm or 50 ppm. The negative control is treated with 0.1% DMSO, and the positive control is treated with 100 μM IBMX. Then, the cells are cultured at 37° C. for 3 days. The wells of the plate are washed with PBS, and 100 μl of 1N NaOH is added to each well to dissolve melanin in the cells. The absorbance of the dissolved melanin is measured at 405 nm with a microplate reader. The effect of the ginsenoside F2 to promote melanogenesis is evaluated in comparison with that of the control groups.
# MITF = MITF expression in melanocytes (Western Blot); assay type: cell-based; settings: 501me1 cell line, IBMX 100 μM, ginsenoside 10 ppm
# Procedure: (§1) 501me1 cell line is injected in each well of a 6-well microtiter plate at a rate of 500,000 cells/well. The cell line in each well is treated with 0.1% of DMSO as the negative control group, 100 μM of IBMX as the positive control group, or ginsenoside 10 ppm of F2 as the test group, and cultured at 37° C. for 24 hours, 48 hours, or 72 hours, to obtain proteins. The proteins thus obtained are subjected to Western Blot using MITF and tyrosinase antibodies. Protein extraction and Western Blot are performed using the standard methods known in the art.
# tyrosinase [2] = experiment: Tyrosinase expression in melanocytes (Western Blot); assay type: cell-based; settings: 501me1 cell line, IBMX 100 μM, ginsenoside 10 ppm
# Procedure: as §1
# [3] = test system: mouse with vitiligo (C57b1/6-Mitf^mi-vit); experiment: Grey hair prevention: melanin in newly grown hair of mouse with vitiligo; assay type: in vivo; settings: applied twice a day, about 3 weeks, 50 mM IBMX, 2.5% ginsenoside F2
# Procedure: A mouse with vitiligo (C57b1/6-Mitf^mi-vit) is purchased from The Jackson Lab in U.S.A. The testing method on the grey hair inhibitory effect using a mouse with lots of grey hair is carried out as follows. A 12-week old mouse is subjected to depilation on the back side. The area of the depilated region is controlled to be the same to every object. From the next day of the depilation, the grey hair inhibitory substances are applied on the depilated region twice a day. The vehicle for the grey hair inhibitory substances is the mixture of EtOH, 1,3-BG and DW (3:2:5 in volume ratio). The liquid containing the vehicle alone is the negative control, the liquid containing the vehicle in combination with 50 mM IBMX is the positive control, and the liquid containing the vehicle in combination with 2.5% ginsenoside F2 is the test group. When the difference in the grey hair inhibitory effect between the substances is visually recognizable in about 3 weeks, the newly grown hair is collected to measure the quantity of melanin produced in the hair. The quantity of melanin in the hair is measured using esperase (Novozyme) strains that are a protein hydrolase. Esperase is dissolved in a buffer solution (50 mM tris-HCl, 5 mM DTT, pH 9.3) to a concentration of 1 NPU/ml to prepare a reaction buffer. 5 mg of mouse hair is put in 1 ml of the reaction buffer, which is stirred at a speed of 1,000 rpm at 37° C. for 13 hours to cause the reaction and then subjected to a momentary centrifugal isolation to separate the reactant solution from hair. The reactant solution thus obtained is placed in each well of a 96-well plate, and the absorbance at 405 nm is measured to determine the amount of melanin in the reactant solution. When a mouse with vitiligo and lots of grey hair is treated with the negative control substance, the positive control substance, or the test substance, the efficacies are visually observed, and the melanin in hair is quantitatively analyzed.
# B16/F10 melanoma cells = experiment: Melanogenesis inhibition in B16/F10 melanoma cells; assay type: cell-based; settings: sample containing 0.001 wt. % of test substance; 3-day cultivation
# Procedure: As a test substance, a sample containing 0.001 wt. % of ginsenoside F2 or kojic acid is added to a culture medium of B16/F10 melanoma cells (available from Korean Cell Line Bank) at a predetermined concentration. The culture medium is eliminated after 3-day cultivation. The cells are washed with PBS and dissolved in 1N NaOH. Then, the absorbance at 405 nm is measured. The control is the cells not treated with any test substance. In comparison with the melanin content in the control group, the inhibitory ability of each test substance against melanogenesis is measured. […] [formula]
# [4] = test system: potassium ion channels (KATP channels); experiment: KATP channel opener test: recovery of NIH3T3 proliferation blocked by tolbutamide (WST-1); assay type: cell-based, mouse; settings: 10 μM minoxidil after 2.5 mM tolbutamide, 48 hours
# Source text: Minoxidil, a treatment for hair loss, is known as a potassium ion channel opener (KATP channel opener) potentially acting on mitochondria and a representative drug used for treatment of androgenic alopecia (hair loss). A testing method used to evaluate the action of minoxidil includes treating with tolbutamide (SIGMA-ALDRICH, T0891) blocking the potassium ion channels (KATP channels) in fibroblasts constituting the corium of scalp to inhibit cell proliferation and then opening the potassium ion channels (KATP channels) to resume the cell proliferation. In order to evaluate the function of the composition of the present invention as a KATP channel opener, the present invention uses a mouse embryonic fibroblast cell line, NIH3T3, as fibroblasts. The cell line is obtained by naturally immortalizing a fibroblast cell line isolated from an NIH Swiss mouse embryo with 3T3 protocol. The cell line is cultured with DMEM (Dulbecco's modified eagle's medium, Gibco BRL, Gaithersburg, Md., U.S.A.) containing 10% FBS (Fetal Bovine Serum) in an incubator under the conditions of 5% CO2 and 37° C. for 24 hours.
# 5α-reductase = molecular target: T2, 5α-reductase (Homo sapiens, UniProt P31213); experiment: 5α-reductase activity inhibition, conversion of [14C]testosterone to DHT in HEK293-5α R2 cells; assay type: cell-based; settings: 2 hours
# T2 construct: 3×FLAG; expressed in transfected cells; host or cells: HEK293
# T2 sequence (P31213 1-254): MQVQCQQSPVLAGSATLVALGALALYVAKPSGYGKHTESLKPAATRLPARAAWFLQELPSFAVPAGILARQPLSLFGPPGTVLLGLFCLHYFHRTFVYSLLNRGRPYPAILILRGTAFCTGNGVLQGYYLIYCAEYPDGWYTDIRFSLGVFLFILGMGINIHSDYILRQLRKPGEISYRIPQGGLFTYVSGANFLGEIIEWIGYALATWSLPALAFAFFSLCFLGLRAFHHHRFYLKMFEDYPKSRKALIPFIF
# Procedure: In order to evaluate the inhibitory effect on the activity of 5α-reductase, the conversion rate from [^14C]testosterone to [^14C]dihydrotestosterone (DHT) in HEK293-5α R2 cells is measured. P3×FLAG-CMV-5α R2 is transduced into HEK293 cells, which are cultured in a 24-well plate at a rate of 2.5×10^5 cells per well (Park et al., 2003, JDS. Vol. 31, pp. 191-98). The next day, the used culture medium is replaced with a new culture medium containing an enzyme substrate and an inhibitor. The substrate of the culture medium is 0.05 μCi [^14C]testosterone (Amersham Pharmacia Biotech, UK).
# To evaluate the degree of 5α-reductase activity inhibition, the cells are treated with ginsenoside F2 and then cultured in a 5% CO2 incubator at 37° C. for 2 hours. In this regard, the negative control is the group not treated with ginsenoside F2, while the positive control is the group treated with finasteride. Subsequently, the culture medium is collected to extract steroids with 800 μl of ethylacetate, and the supernatant organic solvent phase is isolated and dried. The residue is dissolved in 50 μl of ethylacetate and developed on silica plastic sheet kieselgel 60 F254 using an ethylacetate-hexane (1:1) solvent.
# The plastic sheet is dried out in the air and measured in regards to the abundance of isotope using a bath system. The dry plastic sheet together with an X-ray film is put in a bath cassette. After one week, the abundance of isotope of testosterone and dihydrotestosterone remaining on the film is measured to calculate the conversion rate and the inhibition rate according to the following mathematical formulas 5 and 6, respectively.
# collagenase (MMP-1) = experiment: Collagenase (MMP-1) expression in human fibroblasts (ELISA); assay type: cell-based; settings: 10 μg/mL for 24 hours; not treated control = 100
# Procedure: The ginsenoside F2 of the present invention is measured in regards to the inhibitory effect on the generation of collagenase in comparison with retinoic acid. […] The human fibroblasts are treated with ginsenoside F2 or retinoic acid at a concentration of 10 μg/mL for 24 hours. Then, the cell culture medium is collected. The production yield of collagenase in the collected cell culture medium is measured using a collagenase measurement instrument commercially available (Catalog #. RPN 2610, USA Amersham Pharma Inc.). Firstly, the collected cell culture medium is put in each well of a 96-well plate uniformly coated with the primary collagenase antibodies and then subjected to antigen-antibody reactions in a thermostat container for 3 hours. After 3 hours, the secondary collagenase antibodies coupled to the chromophore groups are put in each well of the 96-well plate and then allowed to react for more 15 minutes. […] The intensity of yellowness in the reaction mixture is varied depending on the progress of the reaction. The absorbance of the yellow-colored 96-well plate is measured at 405 nm with a spectrophotometer, and the expression level of collagenase is calculated according to the following mathematical formula 2. In this regard, the absorbance of the cell culture medium collected from the group not treated with the composition of the present invention is considered as the absorbance of the control. [formula]
# [5] = test system: procollagen type (I) in fibroblasts; experiment: Collagen biosynthesis in fibroblasts (procollagen type (I) ELISA); assay type: cell-based; settings: 10 ng/ml, 24 hours; non-treated group = 100%
# Procedure: The ginsenoside F2 of the present invention is compared with TGF-β in regards to the effect of promoting biosynthesis of collagen. Firstly, fibroblasts are seeded in 24 wells at a rate of 10^5 per well and cultured until the growth reaches 90%. The fibroblasts are cultured in a non-serum culture medium for 24 hours, treated with each 10 ng/ml of ginsenoside F2 or TGF-β dissolved in the non-serum culture medium, and then cultured in a CO2 incubator for 24 hours. The supernatant liquid is collected to determine an increase or decrease of procollagen using a procollagen type (I) ELISA kit. The collagen synthesis ability is denoted with respect to 100% for the non-treated group.
# T1 sequence (P00772 27-266): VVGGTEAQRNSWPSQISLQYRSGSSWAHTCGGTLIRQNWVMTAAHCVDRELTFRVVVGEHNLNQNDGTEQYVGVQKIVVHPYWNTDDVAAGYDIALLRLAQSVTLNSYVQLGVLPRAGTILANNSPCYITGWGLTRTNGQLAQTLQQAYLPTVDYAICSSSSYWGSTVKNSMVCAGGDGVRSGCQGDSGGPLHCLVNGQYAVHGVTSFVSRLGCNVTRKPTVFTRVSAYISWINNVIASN
compound,measurement,setting,value
"O=C1O[C@H]([C@@H](O)CO)C(O)=C1O [Ascorbic acid, ascorbic acid]",Tyrosinase inhibition rate (%),tyrosinase [1],52%
O=C(O[C@@H]1Cc2c(O)cc(O)cc2O[C@@H]1c1cc(O)c(O)c(O)c1)c1cc(O)c(O)c(O)c1 [EGCG],Inhibition rate (%) (elastase),elastase type III,65%
CC(C)Cn1c(=O)n(C)c(=O)c2[nH]cnc21 [IBMX],Yield of Melanin (%),Melanin-a cells,120%
same,"MITF (Western Blot, in comparison with 100 of the negative control group)",MITF; 24 hrs,121
same,"MITF (Western Blot, in comparison with 100 of the negative control group)",MITF; 48 hrs,98
same,"MITF (Western Blot, in comparison with 100 of the negative control group)",MITF; 72 hrs,224
same,"Tyrosinase (Western Blot, in comparison with 100 of the negative control group)",tyrosinase [2]; 24 hrs,160
same,"Tyrosinase (Western Blot, in comparison with 100 of the negative control group)",tyrosinase [2]; 48 hrs,149
same,"Tyrosinase (Western Blot, in comparison with 100 of the negative control group)",tyrosinase [2]; 72 hrs,298
same,Amount of melanin (%) with respect to control,[3],105.9%
"O=c1cc(CO)occ1O [Kojic acid, kojic acid]",Melanogenesis inhibition rate (%),B16/F10 melanoma cells,53%
Nc1cc(N2CCCCC2)nc(N)[n+]1[O-] [Minoxidil],Cell proliferation ability (%),[4],132%
"CC(C)(C)NC(=O)[C@H]1CC[C@H]2[C@@H]3CC[C@H]4NC(=O)C=C[C@]4(C)[C@H]3CC[C@]12C [Positive control, finasteride, reference compound]",Inhibition rate (%),5α-reductase; 5α-reductase activity,42.5%
same,Conversion rate (%),5α-reductase; testosterone to dihydrotestosterone,27.6%
"CC1=C(/C=C/C(C)=C/C=C/C(C)=C/C(=O)O)C(C)(C)CCC1 [Retinoic acid, retinoic acid]",Collagenase expression level(%),collagenase (MMP-1),75%
TGF-β,Collagen synthesis ability (%),[5],183.5%
